Test results reported in publication PMC10657467, “Mechanically-primed voltage-gated proton channels from angiosperm plants” (Nature Communications, 2023).

Legend:
Type in all cases: cell-based
[1] = target: T1, AtHv1 (Arabidopsis thaliana, UniProt Q9SGX2); experiment: inside-out patch-clamp of proton currents
T1 construct: gene At1g10800; full-length channel (NP_001321473.1, 236 a.a.) expressed in Xenopus oocytes, after mechanical stimulus
T1 sequence (Q9SGX2 1-236): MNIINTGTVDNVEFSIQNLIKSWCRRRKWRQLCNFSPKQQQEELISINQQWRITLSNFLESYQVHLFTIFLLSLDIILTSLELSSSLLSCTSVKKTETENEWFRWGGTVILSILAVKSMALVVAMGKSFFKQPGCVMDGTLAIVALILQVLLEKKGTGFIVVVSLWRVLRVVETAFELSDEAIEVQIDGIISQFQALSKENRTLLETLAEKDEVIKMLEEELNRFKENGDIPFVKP

[2] = target: T2, PsHv1 (Picea sitchensis, UniProt B8LLA1); experiment: inside-out patch-clamp of proton currents, Hill fit
T2 construct: full-length channel (ABR16431.1, 260 a.a.) expressed in Xenopus oocytes
T2 sequence (B8LLA1 1-260): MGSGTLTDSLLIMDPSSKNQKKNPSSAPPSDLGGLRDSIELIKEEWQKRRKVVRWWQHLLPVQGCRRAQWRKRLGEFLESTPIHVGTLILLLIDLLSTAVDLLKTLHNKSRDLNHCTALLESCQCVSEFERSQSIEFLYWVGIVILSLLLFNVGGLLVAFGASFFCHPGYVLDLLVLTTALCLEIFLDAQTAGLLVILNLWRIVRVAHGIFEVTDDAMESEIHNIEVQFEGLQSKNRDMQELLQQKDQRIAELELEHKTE

[3] = target: T3, SmHv1 (Selaginella moellendorffii, UniProt D8SZW5); experiment: inside-out patch-clamp of proton currents
T3 construct: gene SELMODRAFT_128853; full-length channel (EFJ10096.1, 242 a.a.) expressed in Xenopus oocytes, after mechanical stimulus
T3 sequence (D8SZW5 1-242): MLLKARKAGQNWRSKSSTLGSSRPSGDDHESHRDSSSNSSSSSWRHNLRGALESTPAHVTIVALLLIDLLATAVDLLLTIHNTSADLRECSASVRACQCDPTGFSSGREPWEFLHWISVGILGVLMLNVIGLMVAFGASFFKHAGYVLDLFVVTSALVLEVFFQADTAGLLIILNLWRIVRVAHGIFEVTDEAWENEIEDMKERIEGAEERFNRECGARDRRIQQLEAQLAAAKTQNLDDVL

SMILES	inside-out patch-clamp of proton currents [1]	IC50 [2] [µM]	inside-out patch-clamp of proton currents [3]
N=C(N)Nc1nc2ccc(Cl)cc2[nH]1 [ClGBI, 5-chloro-2-guanidinobenzimidazole]	we tested the effects of 2GBI and ClGBI on AtHv1- and SmHv1-mediated currents post-mechanical stimulation	39 ± 8	we tested the effects of 2GBI and ClGBI on AtHv1- and SmHv1-mediated currents post-mechanical stimulation
N=C(N)Nc1nc2ccccc2[nH]1 [2GBI, 2-guanidinobenzimidazole]	Despite some small differences in the extent of inhibition by 2GBI, AtHv1, SmHv1, and PsHv1 shared a low sensitivity	372 ± 28	Despite some small differences in the extent of inhibition by 2GBI, AtHv1, SmHv1, and PsHv1 shared a low sensitivity
